Experimental findings from patent US20150284335A1, “Benzoimidazoles as prolyl hydroxylase inhibitors” (Janssen Pharmaceutica NV, priority 2008, published 2015) are described below.

Marks after values point to notes of the source that are not given here.

One experiment deals with T1, PHD2181-417 (Homo sapiens, UniProt Q9GZT9).
T1 construct: histidine tag (N, cleaved yes); Smt3 (SUMO) tag (N, cleaved yes); made in house; host or cells: E. coli BL21 (pBAD vector)
Nature of the experiment: PHD enzyme activity assay ([14C]-succinic acid production).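 Further: enzyme expressed in E. coli BL21, assayed in Tris-HCl pH 7.5 with catalase, DTT and ascorbate, [14C]-succinic acid beta-counted after DNP precipitation of residual 2-oxoglutarate.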 The format is biochemical. The following applies: inhibition of PHD2181-417 activity; HIF-1α peptide 10 μM, [5-14C]-2-oxoglutaric acid, 10 minutes; read-out: Enzyme pIC50 (converted).

In another experiment the test system is Hep-3B cells. Nature of the experiment: Cellular assay: EPO secretion in Hep-3B cells. The format is cell-based, human. The following applies: 24 hours, percent of EPO secretion relative to assay control compound.
[1] abbreviates: final compound concentration of 10 μM.
[2] abbreviates: final compound concentration 100 μM.

T1 sequence (Q9GZT9 181-417): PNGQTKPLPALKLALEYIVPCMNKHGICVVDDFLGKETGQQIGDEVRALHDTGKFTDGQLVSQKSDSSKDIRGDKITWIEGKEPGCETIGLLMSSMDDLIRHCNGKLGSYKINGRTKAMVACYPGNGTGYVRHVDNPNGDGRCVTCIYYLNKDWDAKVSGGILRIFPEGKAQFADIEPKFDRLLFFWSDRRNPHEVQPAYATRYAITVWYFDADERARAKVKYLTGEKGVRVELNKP

For `O=C(NC(CO)C(=O)O)c1nc2ccccc2[nH]1` (stereo in doubt) [Example 51, (R)-2-[(1H-Benzoimidazole-2-carbonyl)-amino]-3-hydroxy-propionic acid], the IC50 at PHD2181-417 was 20 µM. Besides, the “Cellular % EPO Stimulation” value in the experiment on Hep-3B cells (setting [1]) is recorded as 0.73* %.
With `O=C(O)c1cnn(-c2nc3cc(-c4cccc(OCc5ccc(Cl)cc5)c4)ccc3[nH]2)c1` [Example 45, 1-{5-[3-(4-Chloro-benzyloxy)-phenyl]-1H-benzoimidazol-2-yl}-1H-pyrazole-4-carboxylic acid], at PHD2181-417, the IC50 is 0.0398 µM. Moreover, in the experiment on Hep-3B cells (setting [2]), the “Cellular % EPO Stimulation” value stood at 2.10%.
Take `O=C(O)CNC(=O)c1nc2ccc(NS(=O)(=O)c3ccccc3)cc2[nH]1` [Example 30, [(6-Benzenesulfonylamino-1H-benzoimidazole-2-carbonyl)-amino]-acetic acid]: the IC50 at PHD2181-417 was 31.6 µM. In addition, the “Cellular % EPO Stimulation” value with Hep-3B cells (setting [2]) was found to be 1.10%.
In the case of `O=C(O)CNC(=O)c1nc2cc(I)ccc2[nH]1` [Example 8, [(5-Iodo-1H-benzoimidazole-2-carbonyl)-amino]-acetic acid], the IC50 at PHD2181-417 was 39.8 µM. The “Cellular % EPO Stimulation” value with Hep-3B cells (setting [2]) came to 3.80%.
For `O=C(O)CNC(=O)c1nc2ccc([N+](=O)[O-])cc2[nH]1` [Example 5, [(6-Nitro-1H-benzoimidazole-2-carbonyl)-amino]-acetic acid], in that order: 5.01 µM and 0.00%.
For `CC(NC(=O)c1nc2ccccc2[nH]1)C(=O)O` (stereo in doubt) [Example 50, (R)-2-[(1H-Benzoimidazole-2-carbonyl)-amino]-propionic acid], on PHD2181-417, the IC50 was more than 100 µM. For the same compound, the “Cellular % EPO Stimulation” value in the experiment with Hep-3B cells (setting [1]) is recorded as 9.50* %.
Consider `Cc1cc(-c2ccc3[nH]c(C(=O)NCC(=O)O)nc3c2)ccc1Cl` [Example 27, {[5-(4-Chloro-3-methyl-phenyl)-1H-benzoimidazole-2-carbonyl]-amino}-acetic acid], for which, at PHD2181-417, the IC50 was 39.8 µM. For the same compound, the “Cellular % EPO Stimulation” value with Hep-3B cells (setting [2]) is reported as −0.70%.
Consider `O=C(O)c1cnn(-c2nc3cc(C(F)(F)F)ccc3[nH]2)c1` [Example 34, 1-(5-Trifluoromethyl-1H-benzoimidazol-2-yl)-1H-pyrazole-4-carboxylic acid], for which the IC50 at PHD2181-417 is 0.251 µM. In addition, in the experiment on Hep-3B cells (setting [2]), the “Cellular % EPO Stimulation” value stood at 127.80%.
Regarding `O=C(O)CNC(=O)c1nc2cc(-c3cnc4ccccc4c3)ccc2[nH]1` [Example 20, [(5-Quinolin-3-yl-1H-benzoimidazole-2-carbonyl)-amino]-acetic acid], the IC50 at PHD2181-417 is 1.58 µM. In the experiment on Hep-3B cells (setting [2]), the “Cellular % EPO Stimulation” value was determined as 8.26%.
Consider `O=C(O)CNC(=O)c1nc2cc(-c3cc(C(=O)NCc4ccccc4)ccc3F)ccc2[nH]1` [Example 24, {[5-(5-Benzylcarbamoyl-2-fluoro-phenyl)-1H-benzoimidazole-2-carbonyl]-amino}-acetic acid], for which the IC50 at PHD2181-417 is 15.8 µM. In addition, the “Cellular % EPO Stimulation” value in the experiment on Hep-3B cells (setting [2]) came out at 13.56%.
Take `O=C(O)CNC(=O)c1nc2cc(-c3cccc(OCc4cccc(Cl)c4)c3)ccc2[nH]1` [Example 13, ({5-[3-(3-Chloro-benzyloxy)-phenyl]-1H-benzoimidazole-2-carbonyl}-amino)-acetic acid]: the IC50 on PHD2181-417 is 1.58 µM. In addition, in the experiment with Hep-3B cells (setting [2]), the “Cellular % EPO Stimulation” value is 1.20%.
For the compound `C[C@H](NC(=O)c1nc2cc(Cl)c(Cl)cc2[nH]1)C(=O)O` [Example 4, (S)-2-[(5,6-Dichloro-1H-benzoimidazole-2-carbonyl)-amino]-propionic acid], at PHD2181-417, the IC50 is 25.1 µM. Moreover, in the experiment with Hep-3B cells (setting [2]), the “Cellular % EPO Stimulation” value was determined as 7.70%.
With `O=C(O)CNC(=O)c1nc2cc(-c3cccc(OCc4ccc(Cl)cc4)c3)ccc2[nH]1` [Example 15, ({5-[3-(4-Chloro-benzyloxy)-phenyl]-1H-benzoimidazole-2-carbonyl}-amino)-acetic acid], the IC50 on PHD2181-417 is 2.51 µM. Moreover, in the experiment with Hep-3B cells (setting [2]), the “Cellular % EPO Stimulation” value is −3.90%.
For `O=C(O)CNC(=O)c1nc2cc(-c3ccc(Oc4ccccc4)cc3)ccc2[nH]1` [Example 18, {[5-(4-Phenoxy-phenyl)-1H-benzoimidazole-2-carbonyl]-amino}-acetic acid], at PHD2181-417, the IC50 is 7.94 µM. In addition, the “Cellular % EPO Stimulation” value in the experiment on Hep-3B cells (setting [2]) was 2.00%.
